Where “and” joins values, the source holds several entries; their conditions need not be identical. Equal entries are not always repeated.
Columns and labels:
[1] = tested on: rat plasma proteins; experiment: Protein binding of [^14C] DHA, equilibrium dialysis, rat plasma; type: in vitro ADME; conditions: undiluted rat plasma, 0.15 to 57800 ng/ml, 37°C, five hours
Description: (§1) Human blood samples (five men and five women) were freshly obtained from subject volunteers at the Department of Clinical Trials, WRAIR. Rat samples were freshly collected from five male and five female rats. Equilibrium dialysis was performed using Teflon dialysis chambers and Diachema standard membranes as described by Li and Hümpel. The GD-4/90 Equilibrium Dialyzer (MM Developments, Ottawa) contained 20 micro-dialysis cells (2.0 ml/chamber). The molecular weight cutoff for dialysis membranes was 5000 D. Equilibrium was reached after four hours, when cells were rotated at 16 rpm and 37°C. Drugs were dissolved in plasma samples with various concentrations (0.15 – 57800 ng/ml) and all experiments were carried out for five hours.

[2] = tested on: human plasma proteins; experiment: Protein binding of [^14C] DHA, equilibrium dialysis, human plasma; type: in vitro ADME
Description: as §1

[3] = Mass balance and urinary/faecal elimination of [^14C] DHA; type: in vivo, rats; conditions: rats i.v. 3 mg/kg
Description: Metabolic cages were washed with a solution of 2% Count-off® (Perkin-Elmer Life and Analytical Sciences, Boston, Massachusetts, USA) and the volume was measured. Duplicate portions (0.1 ml urine; 1 ml cage rinse) of each sample were radio-assayed after the addition of scintillation cocktail. The weights of individual faecal samples were obtained and the samples were subsequently homogenized in four volumes of de-ionized water. Quadruplicate portions (1.0 ml) of each homogenate were decolourized with 30% hydrogen peroxide, and digested with Solvable® tissue solubilizer. After acidification with glacial acetic acid and addition of scintillation cocktail, samples were assayed for radioactivity. The samples were kept in at -20°C for two weeks prior to analysis.

[4] = Feces, listed as [^14C] dihydroartemisinin, 3 mg/kg
[5] = Total, through 192 hours, 3 mg/kg
[6] = Total, through 192 hours, listed as [^14C] dihydroartemisinin, 3 mg/kg
[7] = Urine, listed as [^14C] dihydroartemisinin, 3 mg/kg

- plasma protein binding percentage [1]: 76–82%
- maximum binding percentage ([2]; human plasma, concentration range 0.15 – 462 ng/ml): 82%
- binding percentage declined to, at higher concentrations ([2]; human plasma, higher concentrations (> 25 ng/ml)): 66%
- plasma protein binding percentage ([2]; undiluted human plasma, 0.15 to 57800 ng/ml, 37°C, five hours): 76–82%
- Fecal excretion of total radiolabel (Feces) ([3]; 0.04–0.33 days): 1.52 ± 0.58 % of dose
- Fecal excretion of total radiolabel (Feces) ([3]; 0.33–1.0 days): 29.56 ± 11.75 % of dose
- Fecal excretion of total radiolabel (Feces) ([3]; 1–2 days): 6.14 ± 1.71 % of dose
- Fecal excretion of total radiolabel (Feces) ([3]; 2–3 days): 1.64 ± 0.78 % of dose
- Fecal excretion of total radiolabel (Feces) ([3]; 3–4 days): 0.78 ± 0.31 % of dose
- Fecal excretion of total radiolabel (Feces) ([3]; 4–5 days): 0.46 ± 0.09 % of dose
- Fecal excretion of total radiolabel (Feces) ([3]; 5–6 days): 0.15 ± 0.06 % of dose
- Fecal excretion of total radiolabel (Feces) ([3]; 6–7 days): 0.11 ± 0.05 % of dose
- Fecal excretion of total radiolabel (Feces) ([3]; 7–8 days): 0.04 ± 0.04 % of dose
- Peak height ([3]; Feces, 3 mg/kg): 292.39 μg/rat
- Peak time ([3]; Feces, 3 mg/kg): 0.67 days
- Peak height [3, 4]: 292.39 ± 150.29 μg/rat
- Peak time [3, 4]: 0.67 ± 0.09 days
- Fecal excretion of total radiolabel (Feces) [3, 5]: ~40.39 % of dose and ~40 % of dose
- Total radiolabel in Cage wash [3, 5]: ~1.88 % of dose
- Fecal excretion of total radiolabel (Feces) [3, 6]: 40.39 ± 13.22 % of dose
- Total radiolabel in Cage wash [3, 6]: 1.88 ± 2.27 % of dose
- Peak time ([3]; Urine, 3 mg/kg): 0.37 days
- Peak height [3, 7]: 234.48 ± 33.74 μg/rat
- Peak time [3, 7]: 0.37 ± 0.06 days
- lag time of elimination ([3]; faeces): 0.31 days
- Ratio of excretion (urine/feces) [3]: 1.37 ± 0.39
- faecal excretion, range among animals ([3]; through 192 hours): 27–53 % of the administered dose
- urinary excretion, range among animals ([3]; through 192 hours): 44–61 % of the administered dose
- total dose excreted within first 24 hours ([3]; urine and faeces): greater than 74.76%
- lag time of elimination ([3]; urine): < 0.02 days
SMILES: C[C@@H]1CC[C@H]2[C@@H]([14CH3])C(O)O[C@@H]3O[C@@]4(C)CC[C@@H]1[C@]32OO4 (stereo partly drawn) [[^14C] DHA, [16-^14C] DHA]

Source: publication PMC2694832, “Pharmacokinetics, tissue distribution and mass balance of radiolabeled dihydroartemisinin in male rats” (Malaria Journal, 2009)
